Results reported in article PMC8603004 (EFSA Journal, 2021).
Marks after values point to notes of the source that are not given here.

What was measured:
ADME in a lactating goat = format: in vivo
[1] = system: Holstein Friesian dairy cows; experiment: Three long‐term studies on enteric methane output; format: in vivo
Incubation of = conditions: for 3‐NOP concentration remaining at t = 24 h: 38°C
Wistar rats = experiment: Two‐generation reproduction toxicity study; conditions: rat, in vivo
[2] = Overall NOAEL and health‐based guidance value
[3] = study 1 WUR, 54 mg 3‐NOP/kg TMR DM intake
[4] = study 2 UK, 57 mg 3‐NOP/kg TMR DM intake
[5] = study 3 PSU, 61 mg 3‐NOP/kg TMR DM intake

O=[N+]([O-])OCCCO [3‐NOP, propan‐1,3‐diol‐mononitrate]
Total radioactivity excreted (ADME in a lactating goat; 4.34 mg/kg bw per day, 7 days): 11.85%
Total recovery at sacrifice (ADME in a lactating goat; 4.34 mg/kg bw per day, 7 days): 17.97%
Milk radioactivity in the aqueous phase of milk (ADME in a lactating goat; 8–24 h after the sixth day of administration): 59.0%
Radioactive residues in plasma (ADME in a lactating goat; 24 h after the first administration): 0.61 mg 3‐NOP‐eq/kg
Radioactive residues in plasma (ADME in a lactating goat; at sacrifice): 3.72 mg 3‐NOP‐equivalents/kg
Nitrate esters in milk, not detectable (LOD) (ADME in a lactating goat; milk collected 0–8 h post‐dose): < 0.82 mg 3‐NOP‐equivalent/kg
Nitrate esters in milk, not detectable (LOD) (ADME in a lactating goat; milk collected 8–24 h post‐dose): < 0.43 mg 3‐NOP‐equivalent/kg
Plasma radioactivity non‐extractable in the protein precipitate (ADME in a lactating goat; plasma collected at sacrifice): Eighty‐five
Final BW [1, 3]: 668 kg
Milk fat [1, 3]: 43.4 g/kg
Milk protein [1, 3]: 36.3 ^* g/kg
TMR DM intake [1, 3]: 18.4 kg/day
kg EC milk/day [1, 3]: 25.7 kg EC milk/day
kg EC milk/kg DMI [1, 3]: 1.36 ^* kg EC milk/kg DMI
kg milk/day [1, 3]: 24.5 kg milk/day
g CH4/kg EC milk ([1]; study 1 WUR, 54 mg 3‐NOP/kg TMR DM intake (control 17.1)): 12.9 ^* (18.7) g CH4/kg EC milk
g CH4/kg DM intake ([1]; study 1 WUR, 54 mg 3‐NOP/kg TMR DM intake (control 22.4)): 17.7 ^* (25.5) g CH4/kg DM intake
g CH4/day ([1]; study 1 WUR, 54 mg 3‐NOP/kg TMR DM intake, average over 15 weeks (control 423)): 332 ^* (480) g CH4/day
Final BW [1, 4]: 721 kg
Milk fat [1, 4]: 39.9 ^* g/kg
Milk protein [1, 4]: 33.4 g/kg
TMR DM intake [1, 4]: 22.9 kg/day
kg EC milk/day [1, 4]: 35.0 ^* kg EC milk/day
kg EC milk/kg DMI [1, 4]: 1.53 kg EC milk/kg DMI
kg milk/day [1, 4]: 36.0 kg milk/day
g H2/day ([1]; study 2 UK, 57 mg 3‐NOP/kg TMR DM intake (control 2.6)): 10.6 ^* (2.4) g H2/day
g CH4/kg EC milk ([1]; study 2 UK, 57 mg 3‐NOP/kg TMR DM intake (control 12.3)): 8.4 ^* (10.1) g CH4/kg EC milk
g CH4/kg DM intake ([1]; study 2 UK, 57 mg 3‐NOP/kg TMR DM intake (control 20.3)): 13.5 ^* (16.7) g CH4/kg DM intake
g CH4/day ([1]; study 2 UK, 57 mg 3‐NOP/kg TMR DM intake (control 449)): 292 ^* (400) g CH4/day
Final BW [1, 5]: 648 kg
Milk fat [1, 5]: 40.2 ^* g/kg
Milk protein [1, 5]: 31.5 g/kg
TMR DM intake [1, 5]: 25.7 kg/day
kg EC milk/day [1, 5]: 37.5 kg EC milk/day
kg EC milk/kg DMI [1, 5]: 1.47 kg EC milk/kg DMI
kg milk/day [1, 5]: 38.2 kg milk/day
g H2/day ([1]; study 3 PSU, 61 mg 3‐NOP/kg TMR DM intake (control 0.5)): 2.6 ^* (0.4) g H2/day
g CH4/kg EC milk ([1]; study 3 PSU, 61 mg 3‐NOP/kg TMR DM intake (control 11.2)): 8.2 ^* (9.7) g CH4/kg EC milk
g CH4/kg DM intake ([1]; study 3 PSU, 61 mg 3‐NOP/kg TMR DM intake (control 16.7)): 12.1 ^* (14.9) g CH4/kg DM intake
g CH4/day ([1]; study 3 PSU, 61 mg 3‐NOP/kg TMR DM intake (control 410)): 308 ^* (403) g CH4/day
Radioactivity in the non‐dissolved fractions (Incubation of; 2.2 mg/L): ≤ 5.5%
3‐NOP concentration remaining at t = 24 h (Incubation of; 2.2 mg/L, anaerobic): 0%
Radioactivity in the non‐dissolved fractions (Incubation of; 23 mg/L): 7%
3‐NOP concentration remaining at t = 24 h (Incubation of; 23 mg/L, anaerobic): < 0.1%
Radioactivity in the trapped gas phases (Incubation of; 23 or 2.2 mg/L, up to 24 h at 38°C, anaerobic, pH about 6.2): ≤ 0.1 % of the total radioactivity
3‐NOP concentration remaining (Incubation of; after 6 h): 54%
3‐NOP concentration remaining (Incubation of; after 12 h): 6%
Abiotic degradation of 3‐NOP to propane‐1,3‐diol (Incubation of; control samples (no or only minor)): 9.8%
NOAEL for parental toxicity (Wistar rats): 100 mg/kg bw per day
NOAEL for reproduction and developmental toxicity (Wistar rats): at least 100 mg/kg bw per day
Health‐based guidance value (acceptable daily intake, ADI) ([2]; NOAEL 100 mg/kg bw per day, uncertainty factor of 100): 1 mg 3‐NOP/kg bw per day
Overall NOAEL ([2]; subchronic toxicity studies in rats, mice and dogs): 100 mg/kg bw per day
